Results as given in patent US20210321612A1, “USE OF QUERCETIN IN PLANT AGING PROMOTER” (TOBACCO RESEARCH INSTITUTE OF CHINESE ACADEMY OF …, priority 2019, published 2021).

Legend:
Format in all cases: in vivo
[1] = test system: living plants of Arabidopsis thaliana; test: Spraying the quercetin plant senescence accelerator onto living plants of Arabidopsis thaliana; settings: attached leaves sprayed at 10 and 20 μmol/L; FIG. 3B
Excerpt: Experimental test 3: Effects of spraying the quercetin plant senescence accelerator onto living plants of Arabidopsis thaliana Living plants of Arabidopsis thaliana were sprayed with the quercetin plant senescence accelerator finished products prepared by the preparation method provided in one of Embodiments 1-3 of the present application, and the accelerating effect of the accelerator on the senescence of plant leaves was observed. The specific results were shown in FIGS. 3A-3C, and the experimental groups and their results were described below. Experimental group: living plants of Arabidopsis thaliana were sprayed with the quercetin plant senescence accelerators with concentrations of 10 μmol/L and 20 μmol/L in Embodiment 2, respectively. Control group: living plants Arabidopsis thaliana were sprayed with the 1/2 MS solution of 2-(N-morpholino)ethanesulfonic acid in which the concentration of 2-(N-morpholino)ethanesulfonic acid was 3 mmol/L.

[2] = test system: living plants of Nicotiana benthamiana; test: Spraying the quercetin plant senescence accelerator onto attached leaves of Nicotiana benthamiana; settings: attached leaves sprayed at 1, 10 and 20 μmol/L; FIG. 4B
Excerpt: Experimental test 4: Effects of spraying the quercetin plant senescence accelerator onto attached leaves of Nicotiana benthamiana Living plants of Nicotiana benthamiana were sprayed with the quercetin plant senescence accelerator finished product in Embodiment 3, and the accelerating effect of the accelerator on the senescence of plant leaves was observed. The specific results were shown in FIGS. 4A-4C, and the experimental groups and their results were described below. Experimental group: living plants of Nicotiana benthamiana were sprayed with the quercetin plant senescence accelerators having concentrations of 1 μmol/L, 10 μmol/L and 20 μmol/L, respectively. Control group: living plants of Nicotiana benthamiana were sprayed with the 1/2 MS solution of 2-(N-morpholino)ethanesulfonic acid in which the concentration of 2-(N-morpholino)ethanesulfonic acid was 2.9 mmol/L.

[3] = test system: Honghuadajinyuan tobacco; test: Spraying the quercetin plant senescence accelerator onto common tobacco in fields; settings: 10 μmol/L; attached leaves of tobacco; FIG. 5B
Excerpt: Experimental test 5: Effects of spraying the quercetin plant senescence accelerator onto common tobacco in fields It could be found from the experimental test 4 that 10 μmol/L was the optimal concentration of the quercetin plant senescence accelerator to accelerate mature and yellowing of tobacco leaves. Further, Honghuadajinyuan tobacco was sprayed with the quercetin plant senescence accelerator finished product, and the accelerating effect of the accelerator on the senescence of plant leaves was observed. The specific results were shown in FIGS. 5A-5D, and the experimental groups and their results were described below. The quercetin plant senescence accelerator having a concentration of 0 (the control group) and the quercetin plant senescence accelerator having a concentration of 10 μmol/L were sprayed onto living plants of common tobacco.

Measured: content of chlorophyll in leaves

O=c1c(O)c(-c2ccc(O)c(O)c2)oc2cc(O)cc(O)c12 [quercetin]
significantly reduced: all assays above
